Assay results from ChEMBL document CHEMBL1909046, “DrugMatrix in vitro pharmacology data”.

Key:
Cytochrome P450 2A6 = biological target: T1, Cytochrome P450 2A6 (Homo sapiens, UniProt P11509); settings: bti-tn-5b1-4; also: in other assays of this panel Not Active means under 50% inhibition at 10 µM
T1 sequence (P11509 whole entry): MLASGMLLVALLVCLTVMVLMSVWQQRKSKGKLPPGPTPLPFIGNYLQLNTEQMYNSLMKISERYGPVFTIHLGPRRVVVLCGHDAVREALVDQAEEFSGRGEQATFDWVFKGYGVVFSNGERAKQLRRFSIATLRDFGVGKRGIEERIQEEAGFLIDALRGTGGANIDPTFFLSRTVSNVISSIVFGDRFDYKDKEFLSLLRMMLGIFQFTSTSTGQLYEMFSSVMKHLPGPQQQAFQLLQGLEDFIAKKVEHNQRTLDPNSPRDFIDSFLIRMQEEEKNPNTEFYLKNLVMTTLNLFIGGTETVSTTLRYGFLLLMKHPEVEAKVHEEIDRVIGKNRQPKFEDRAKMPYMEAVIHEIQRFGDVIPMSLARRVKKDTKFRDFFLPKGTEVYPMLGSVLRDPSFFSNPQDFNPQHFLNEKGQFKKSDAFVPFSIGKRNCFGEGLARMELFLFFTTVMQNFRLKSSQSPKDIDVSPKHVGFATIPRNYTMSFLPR

[1] = biological target: T2, C-X-C chemokine receptor type 2 (Homo sapiens, UniProt P25025); type: cell membranes, Membrane; settings: cho-k1; also: in other assays of this panel Not Active means under 50% inhibition at 10 µM
T2 sequence (P25025 whole entry): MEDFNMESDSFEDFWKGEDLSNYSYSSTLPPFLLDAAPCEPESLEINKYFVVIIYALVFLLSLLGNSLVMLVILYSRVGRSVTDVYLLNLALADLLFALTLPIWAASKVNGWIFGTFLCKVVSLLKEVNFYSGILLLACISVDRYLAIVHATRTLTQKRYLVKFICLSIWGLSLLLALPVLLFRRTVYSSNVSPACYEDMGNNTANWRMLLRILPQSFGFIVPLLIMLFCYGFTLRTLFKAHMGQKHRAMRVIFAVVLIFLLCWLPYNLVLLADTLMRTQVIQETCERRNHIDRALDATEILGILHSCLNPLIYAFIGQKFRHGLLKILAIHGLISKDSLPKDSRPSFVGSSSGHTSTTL

Cytochrome P450 2C19 = Cytochrome P450 2C19 (Homo sapiens, UniProt P33261); settings: bti-tn-5b1-4; also: in other assays of this panel Not Active means under 50% inhibition at 10 µM
Cytochrome P450 2C19, sequence (P33261 whole entry): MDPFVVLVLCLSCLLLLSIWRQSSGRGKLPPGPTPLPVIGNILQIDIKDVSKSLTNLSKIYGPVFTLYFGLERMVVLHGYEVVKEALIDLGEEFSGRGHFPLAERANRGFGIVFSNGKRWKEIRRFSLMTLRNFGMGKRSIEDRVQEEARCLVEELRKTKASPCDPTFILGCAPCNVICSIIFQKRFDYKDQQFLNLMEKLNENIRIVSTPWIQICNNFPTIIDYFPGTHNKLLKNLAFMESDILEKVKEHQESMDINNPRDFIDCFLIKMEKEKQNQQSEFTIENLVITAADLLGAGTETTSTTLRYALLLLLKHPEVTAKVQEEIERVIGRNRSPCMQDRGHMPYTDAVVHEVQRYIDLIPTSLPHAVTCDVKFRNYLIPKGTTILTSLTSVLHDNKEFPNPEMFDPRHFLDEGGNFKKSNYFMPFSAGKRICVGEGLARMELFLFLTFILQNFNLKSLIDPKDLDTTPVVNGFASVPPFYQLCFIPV

[2] = biological target: T3, Cysteinyl leukotriene receptor 1 (Homo sapiens, UniProt Q9Y271); type: cell membranes, Membrane; settings: cho-k1; also: in other assays of this panel Not Active means under 50% inhibition at 10 µM
T3 sequence (Q9Y271 whole entry): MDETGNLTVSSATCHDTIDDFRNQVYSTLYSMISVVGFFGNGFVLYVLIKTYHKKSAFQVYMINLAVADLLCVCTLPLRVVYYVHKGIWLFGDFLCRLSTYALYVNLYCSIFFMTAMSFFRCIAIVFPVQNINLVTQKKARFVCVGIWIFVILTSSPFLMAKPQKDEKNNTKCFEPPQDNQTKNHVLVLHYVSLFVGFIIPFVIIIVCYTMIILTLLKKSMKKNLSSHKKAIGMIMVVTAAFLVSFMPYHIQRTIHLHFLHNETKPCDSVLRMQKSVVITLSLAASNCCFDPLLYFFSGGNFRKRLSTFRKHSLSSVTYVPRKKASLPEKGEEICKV

[3] = biological target: Beta-1 adrenergic receptor (Homo sapiens, UniProt P08588); assay: DRUGMATRIX: Adrenergic beta1 radioligand binding (ligand: [125I] Cyanopindolol); type: cell membranes, CHO-K1, Membrane; settings: cho-k1; Not Active = under 50% inhibition at 10 µM
Beta-1 adrenergic receptor, sequence (P08588 whole entry): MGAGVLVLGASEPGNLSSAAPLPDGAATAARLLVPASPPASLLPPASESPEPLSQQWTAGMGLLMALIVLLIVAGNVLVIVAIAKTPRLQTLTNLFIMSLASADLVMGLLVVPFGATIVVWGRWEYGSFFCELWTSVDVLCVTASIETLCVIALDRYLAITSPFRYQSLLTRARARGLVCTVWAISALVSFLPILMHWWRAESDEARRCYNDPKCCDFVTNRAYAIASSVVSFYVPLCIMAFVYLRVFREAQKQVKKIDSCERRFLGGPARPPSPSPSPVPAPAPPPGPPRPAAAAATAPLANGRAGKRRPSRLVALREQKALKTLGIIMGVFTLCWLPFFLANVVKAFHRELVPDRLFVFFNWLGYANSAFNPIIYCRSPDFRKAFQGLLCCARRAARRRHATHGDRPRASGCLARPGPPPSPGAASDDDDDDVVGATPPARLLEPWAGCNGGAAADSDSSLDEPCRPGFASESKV

[4] = DRUGMATRIX: Calcium Channel Type L, Benzothiazepine radioligand binding (ligand: [3H] Diltiazem); type: cell membranes, Rattus norvegicus, Wistar, Brain, Membrane; settings: Not Active = under 50% inhibition at 10 µM

C#C[C@]1(OC(C)=O)CC[C@H]2[C@@H]3CCC4=C[C@@H](OC(C)=O)CC[C@@H]4[C@H]3CC[C@@]21C [ETHYNODIOL DIACETATE]
Not Active: IC50 (Cytochrome P450 2A6) | Ki (Cytochrome P450 2A6) | IC50 [1] | IC50 (Cytochrome P450 2C19) | Ki (Cytochrome P450 2C19) | IC50 [2] | IC50 [3] | IC50 [4] | Ki [4]

C=CCc1ccc(O)c(OC)c1 [EUGENOL]
Not Active: IC50 (Cytochrome P450 2A6) | Ki (Cytochrome P450 2A6) | IC50 [1] | IC50 (Cytochrome P450 2C19) | Ki (Cytochrome P450 2C19) | IC50 [2] | IC50 [3] | IC50 [4] | Ki [4]

CC(C(=O)O)c1cccc(Oc2ccccc2)c1 (stereo not drawn) [FENOPROFEN]
Not Active: IC50 (Cytochrome P450 2A6) | Ki (Cytochrome P450 2A6) | IC50 [1] | IC50 (Cytochrome P450 2C19) | Ki (Cytochrome P450 2C19) | IC50 [2] | IC50 [3] | IC50 [4] | Ki [4]

Nc1ccn([C@@H]2O[C@H](CO)[C@@H](O)C2(F)F)c(=O)n1 [GEMCITABINE]
Not Active: IC50 (Cytochrome P450 2A6) | Ki (Cytochrome P450 2A6) | IC50 [1] | IC50 (Cytochrome P450 2C19) | Ki (Cytochrome P450 2C19) | IC50 [2] | IC50 [3] | IC50 [4] | Ki [4]

N=C(N)NC(=O)Cc1c(Cl)cccc1Cl [GUANFACINE]
Not Active: IC50 (Cytochrome P450 2A6) | Ki (Cytochrome P450 2A6) | IC50 [1] | IC50 (Cytochrome P450 2C19) | Ki (Cytochrome P450 2C19) | IC50 [2] | IC50 [3] | IC50 [4] | Ki [4]

NNc1nncc2ccccc12 [HYDRALAZINE]
Not Active: IC50 (Cytochrome P450 2A6) | Ki (Cytochrome P450 2A6) | IC50 [1] | IC50 (Cytochrome P450 2C19) | Ki (Cytochrome P450 2C19) | IC50 [2] | IC50 [3] | IC50 [4] | Ki [4]

CC(C)NNC(=O)c1ccncc1 [IPRONIAZID]
Not Active: IC50 (Cytochrome P450 2A6) | Ki (Cytochrome P450 2A6) | IC50 [1] | IC50 (Cytochrome P450 2C19) | Ki (Cytochrome P450 2C19) | IC50 [2] | IC50 [3] | IC50 [4] | Ki [4]

O=c1cc(N2CCOCC2)oc2c(-c3ccccc3)cccc12 [LY-294002]
Not Active: IC50 (Cytochrome P450 2A6) | Ki (Cytochrome P450 2A6) | IC50 [1] | IC50 (Cytochrome P450 2C19) | Ki (Cytochrome P450 2C19) | IC50 [2] | IC50 [3] | IC50 [4] | Ki [4]

NC(=O)C[S+]([O-])C(c1ccccc1)c1ccccc1 (stereo not drawn) [MODAFINIL]
Not Active: IC50 (Cytochrome P450 2A6) | Ki (Cytochrome P450 2A6) | IC50 [1] | IC50 (Cytochrome P450 2C19) | Ki (Cytochrome P450 2C19) | IC50 [2] | IC50 [3] | IC50 [4] | Ki [4]

CCN(CC)CCOCCC1=CCC2CC1C2(C)C (stereo not drawn) [MYRTECAINE]
Not Active: IC50 (Cytochrome P450 2A6) | Ki (Cytochrome P450 2A6) | IC50 [1] | IC50 (Cytochrome P450 2C19) | Ki (Cytochrome P450 2C19) | IC50 [2] | IC50 [3] | IC50 [4] | Ki [4]

O=C(O)c1cccnc1Nc1cccc(C(F)(F)F)c1 [NIFLUMIC ACID]
Not Active: IC50 (Cytochrome P450 2A6) | Ki (Cytochrome P450 2A6) | IC50 [1] | IC50 (Cytochrome P450 2C19) | Ki (Cytochrome P450 2C19) | IC50 [2] | IC50 [3] | IC50 [4] | Ki [4]

COC(=O)Nc1nc2ccc(C(=O)c3cccs3)cc2[nH]1 [NOCODAZOLE]
Not Active: IC50 (Cytochrome P450 2A6) | Ki (Cytochrome P450 2A6) | IC50 [1] | IC50 (Cytochrome P450 2C19) | Ki (Cytochrome P450 2C19) | IC50 [2] | IC50 [3] | IC50 [4] | Ki [4]

C#CC1(O)CC[C@H]2[C@@H]3CCC4=CC(=O)CC[C@@H]4[C@H]3CC[C@@]21CC (stereo partly drawn) [NORGESTREL]
Not Active: IC50 (Cytochrome P450 2A6) | Ki (Cytochrome P450 2A6) | IC50 [1] | IC50 (Cytochrome P450 2C19) | Ki (Cytochrome P450 2C19) | IC50 [2] | IC50 [3] | IC50 [4] | Ki [4]

COC(=O)Nc1nc2ccc([S+]([O-])c3ccccc3)cc2[nH]1 (stereo not drawn) [OXFENDAZOLE]
Not Active: IC50 (Cytochrome P450 2A6) | Ki (Cytochrome P450 2A6) | IC50 [1] | IC50 (Cytochrome P450 2C19) | Ki (Cytochrome P450 2C19) | IC50 [2] | IC50 [3] | IC50 [4] | Ki [4]

C[n+]1ccc(-c2cc[n+](C)cc2)cc1.[Cl-].[Cl-] [PARAQUAT DICHLORIDE]
Not Active: IC50 (Cytochrome P450 2A6) | Ki (Cytochrome P450 2A6) | IC50 [1] | IC50 (Cytochrome P450 2C19) | Ki (Cytochrome P450 2C19) | IC50 [2] | IC50 [3] | IC50 [4] | Ki [4]

CCn1cc(C(=O)O)c(=O)c2cnc(N3CCCC3)nc21 [PIROMIDIC ACID]
Not Active: IC50 (Cytochrome P450 2A6) | Ki (Cytochrome P450 2A6) | IC50 [1] | IC50 (Cytochrome P450 2C19) | Ki (Cytochrome P450 2C19) | IC50 [2] | IC50 [3] | IC50 [4] | Ki [4]

C[n+]1ccccc1/C=N/O.[Cl-] [PRALIDOXIME CHLORIDE]
Not Active: IC50 (Cytochrome P450 2A6) | Ki (Cytochrome P450 2A6) | IC50 [1] | IC50 (Cytochrome P450 2C19) | Ki (Cytochrome P450 2C19) | IC50 [2] | IC50 [3] | IC50 [4] | Ki [4]

COc1cc2nc(N3CCN(C(=O)c4ccco4)CC3)nc(N)c2cc1OC [PRAZOSIN]
Not Active: IC50 (Cytochrome P450 2A6) | Ki (Cytochrome P450 2A6) | IC50 [1] | IC50 (Cytochrome P450 2C19) | Ki (Cytochrome P450 2C19) | IC50 [2] | IC50 [3] | IC50 [4] | Ki [4]

C[C@]12C=CC(=O)C=C1CC[C@@H]1[C@@H]2[C@@H](O)C[C@@]2(C)[C@H]1CC[C@]2(O)C(=O)CO [PREDNISOLONE]
Not Active: IC50 (Cytochrome P450 2A6) | Ki (Cytochrome P450 2A6) | IC50 [1] | IC50 (Cytochrome P450 2C19) | Ki (Cytochrome P450 2C19) | IC50 [2] | IC50 [3] | IC50 [4] | Ki [4]

CC(=O)[C@H]1[C@H](C#N)C[C@H]2[C@@H]3CC=C4C[C@@H](O)CC[C@]4(C)[C@H]3CC[C@@]21C [PREGNENOLONE CARBONITRILE]
Not Active: IC50 (Cytochrome P450 2A6) | Ki (Cytochrome P450 2A6) | IC50 [1] | IC50 (Cytochrome P450 2C19) | Ki (Cytochrome P450 2C19) | IC50 [2] | IC50 [3] | IC50 [4] | Ki [4]

CCCN(CCC)S(=O)(=O)c1ccc(C(=O)O)cc1 [PROBENECID]
Not Active: IC50 (Cytochrome P450 2A6) | Ki (Cytochrome P450 2A6) | IC50 [1] | IC50 (Cytochrome P450 2C19) | Ki (Cytochrome P450 2C19) | IC50 [2] | IC50 [3] | IC50 [4] | Ki [4]

CCCOc1ccc(C(=O)OCCN(CC)CC)cc1N [PROPARACAINE]
Not Active: IC50 (Cytochrome P450 2A6) | Ki (Cytochrome P450 2A6) | IC50 [1] | IC50 (Cytochrome P450 2C19) | Ki (Cytochrome P450 2C19) | IC50 [2] | IC50 [3] | IC50 [4] | Ki [4]

C[C@@H]1O[C@@H](O[C@@H]2C=C3CC[C@@H]4[C@H](CC[C@]5(C)[C@@H](c6ccc(=O)oc6)CC[C@]45O)[C@@]3(C)CC2)[C@H](O)[C@H](O)[C@H]1O [PROSCILLARIDIN]
Not Active: IC50 (Cytochrome P450 2A6) | Ki (Cytochrome P450 2A6) | IC50 [1] | IC50 (Cytochrome P450 2C19) | Ki (Cytochrome P450 2C19) | IC50 [2] | IC50 [3] | IC50 [4] | Ki [4]

Oc1cccc(O)c1O [PYROGALLOL]
Not Active: IC50 (Cytochrome P450 2A6) | Ki (Cytochrome P450 2A6) | IC50 [1] | IC50 (Cytochrome P450 2C19) | Ki (Cytochrome P450 2C19) | IC50 [2] | IC50 [3] | IC50 [4] | Ki [4]

AURANOFIN
Not Active: IC50 (Cytochrome P450 2A6) | Ki (Cytochrome P450 2A6) | IC50 [1] | Ki [1] | IC50 (Cytochrome P450 2C19) | Ki (Cytochrome P450 2C19) | IC50 [2] | Ki [2] | IC50 [3] | Ki [3] | IC50 [4] | Ki [4]
